Test [1] is described as follows: Cytotoxicity against human MM6 cells assessed as inhibition of cell growth incubated for 48 hrs by MTS assay. Type of test: functional, cell-based.
The test system of test [2] is MONO-MAC-6. As to the kind of experiment: Antitumor activity against human MONO-MAC-6 cells xenografted in NSG mouse assessed as mouse survival at 2 mg/kg, ip dosed for ten consecutive days and measured after 120 days post treatment. Conditions: MONO-MAC-6, ip, 2880 h. It is filed as functional.
Test [3] has as its system NB-4. The experiment in a line: Cytotoxicity against human NB4 cells assessed as inhibition of cell growth incubated for 72 hrs by MTS assay relative to control. Type of test: functional.
In test [4] the test system is NB-4. The experiment in a line: Cytotoxicity against human NB4 cells assessed as inhibition of cell growth incubated for 72 hrs by MTS assay. It is filed as functional, cell-based. Conditions: NB-4, 72 h.
The nature of test [5]: Cytotoxicity against human MM6 cells assessed as inhibition of cell growth incubated for 72 hrs by MTS assay. Type of test: functional, cell-based.
Test [6] concerns NB-4. The experiment in a line: Cytotoxicity against human NB4 cells assessed as inhibition of cell growth incubated for 48 hrs by MTS assay. Conditions: NB-4, 48 h. It is filed as functional, cell-based.
Test [7] can be described thus: Cytotoxicity against human MM6 cells assessed as inhibition of cell growth incubated for 72 hrs by MTS assay relative to control. It is filed as functional.
Test [8] concerns the target Alpha-ketoglutarate-dependent dioxygenase FTO (Homo sapiens, UniProt Q9C0B1). As to the kind of experiment: Inhibition of FTO (unknown origin) assessed as reduction in demethylation using 39nt-m6 A-ssDNA and 2OG incubated for 2 hrs by non-denaturing polyacrylamide electrophoresis method.
The test system of test [9] is MONO-MAC-6. The experiment in a line: Antitumor activity against human MONO-MAC-6 cells xenografted in NSG mouse assessed as mouse survival at 2 mg/kg, ip dosed for ten consecutive days and measured after 62 days post treatment. Type of test: functional. Conditions: MONO-MAC-6, ip, 1488 h.
The subject of test [10] is MONO-MAC-6. As to the kind of experiment: Antitumor activity against human MONO-MAC-6 cells xenografted in NSG mouse assessed as mouse survival at 2 mg/kg, ip dosed for ten consecutive days and measured after 55 days post treatment. Type of test: functional. Particulars: MONO-MAC-6, ip, 1320 h.
Test [11] relates to MONO-MAC-6. The experiment in a line: Antitumor activity against human MONO-MAC-6 cells xenografted in NSG mouse assessed as mouse survival at 2 mg/kg, ip dosed for ten consecutive days and measured after 40 days post treatment. Type of test: functional. Conditions: MONO-MAC-6, ip, 960 h.
Test [12] has as its system MONO-MAC-6. As to the kind of experiment: Antitumor activity against human MONO-MAC-6 cells xenografted in NSG mouse assessed as improvement in spleen swelling by measuring spleen weight at 2 mg/kg, ip dosed for ten consecutive days (reference value: 55 mg). It is filed as functional.
Test [13] deals with MONO-MAC-6. The experiment in a line: Antitumor activity against human MONO-MAC-6 cells xenografted in NSG mouse assessed as improvement in liver swelling by measuring liver weight at 2 mg/kg, ip dosed for ten consecutive days (reference value: 2200 mg). It is filed as functional.
The subject of test [14] is MONO-MAC-6. The experiment in a line: Antitumor activity against human MONO-MAC-6 cells xenografted in NSG mouse assessed as reduction in tumor cell transplantation efficiency at 2 mg/kg, ip dosed for ten consecutive days and measured after 40 to days post treatment. It is filed as functional, organism-based.
Test [15] deals with MONO-MAC-6. The experiment in a line: Antitumor activity against human MONO-MAC-6 cells xenografted in NSG mouse assessed as mouse survival at 2 mg/kg, ip dosed for ten consecutive days and measured after 60 days post treatment. Type of test: functional. Conditions: MONO-MAC-6, ip, 1440 h.

The source made the active and inactive calls. The calls are words filed in the database; no cut-off is given here.

Alpha-ketoglutarate-dependent dioxygenase FTO, sequence (Q9C0B1 whole entry): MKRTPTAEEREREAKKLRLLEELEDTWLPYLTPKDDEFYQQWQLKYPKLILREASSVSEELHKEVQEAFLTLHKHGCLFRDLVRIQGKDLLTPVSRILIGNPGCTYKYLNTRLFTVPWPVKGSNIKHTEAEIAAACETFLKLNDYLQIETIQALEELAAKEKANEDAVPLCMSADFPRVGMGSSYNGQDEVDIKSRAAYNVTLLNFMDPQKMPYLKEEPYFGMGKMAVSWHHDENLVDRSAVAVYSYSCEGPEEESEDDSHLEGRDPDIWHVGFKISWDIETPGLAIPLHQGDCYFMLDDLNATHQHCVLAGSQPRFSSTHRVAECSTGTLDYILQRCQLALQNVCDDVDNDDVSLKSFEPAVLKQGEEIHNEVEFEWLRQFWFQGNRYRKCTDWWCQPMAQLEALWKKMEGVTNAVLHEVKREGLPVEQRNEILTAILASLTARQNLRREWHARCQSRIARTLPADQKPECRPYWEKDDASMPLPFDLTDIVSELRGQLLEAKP

On to `Cc1noc(C)c1-c1cc(Cl)c(Nc2ccccc2C(=O)NO)c(Cl)c1`, for which the IC50 in test [1] came to 10.4 µM; in test [4], 0.8 µM; in test [5], 1.5 µM; in test [6], 4.7 µM; in test [8], 1.6 µM. Besides, the survival at 2 mg/kg in test [2] amounted to 15%; in test [9] it was 30%; in test [10], 60%; in test [11] it was 80%; in test [15], 40%. The “growth inhibition (GI)” value in test [3] and in [7] was 100% each time. Further, the Activity is recorded as 18 mg in test [12] and 800 mg in test [13]. Also, the outcome in test [14] was Active.
Consider `Cc1n[nH]c(C)c1-c1cc(Cl)c(Nc2ccccc2C(=O)O)c(Cl)c1`, for which the “growth inhibition (GI)” value is 20% in [3] and 18% in test [7].
With `O=C(O)c1ccc(-c2cc(Cl)c(Nc3ccccc3C(=O)O)c(Cl)c2)s1`, the IC50 in [8] was found to be 1.2 µM.
In the case of `Cc1noc(C)c1-c1cc(Cl)c(Nc2ccccc2C(=O)O)c(Cl)c1`, the “growth inhibition (GI)” value in [3] is given as 70%; in test [7] it was 75%. The IC50 in [4] stood at 44.8 µM; in [5] it was 23.6 µM.
On to `Cc1noc(C)c1-c1cc(Cl)c(Nc2ccccc2-c2noc(=O)[nH]2)c(Cl)c1`, for which the IC50 worked out at 9.9 µM in test [1]; 5.3 µM in test [4]; 5.8 µM in test [5]; 6.3 µM in test [6]; 1.1 µM in test [8]. The “growth inhibition (GI)” value in test [3] and in test [7] was 100% throughout.
For the molecule `O=C(O)c1ccccc1Nc1c(Cl)cc(-c2ccncc2)cc1Cl`, the figures for the “growth inhibition (GI)” value in test [3] and in test [7] were 39% and 46%, respectively. Further, the IC50 in test [8] came to 4.6 µM.
Consider `Cc1noc(C)c1-c1cc(Cl)c(Nc2ccccc2-c2nn[nH]n2)c(Cl)c1`, for which the results for the “growth inhibition (GI)” value in test [3] and in test [7] were 26% and 23%, respectively.
With `O=C(O)c1ccccc1Nc1c(Cl)cc(-c2ccn[nH]2)cc1Cl`, the “growth inhibition (GI)” value was 25% in test [3] and 29% in [7]. Moreover, the IC50 in test [8] was determined as 7.6 µM.
For the molecule `Cc1cc(C)n(-c2cc(Cl)c(Nc3ccccc3C(=O)O)c(Cl)c2)n1`, the IC50 in [8] was in the range of 30 to 50 µM.

Values taken from ChEMBL document CHEMBL4417641, “Use of 2-(substituted phenylamino)benzoic acid fto inhibitor in treating leukemia” (2018).
